Source: publication PMC12951562, “SH2scan: Mapping SH2 Domain-Ligand Binding Selectivity for Inhibitors and Degraders” (Journal of Medicinal Chemistry, 2026)
Several values for one entry are separate records, joined by “and”; a condition that tells them apart may be missing. Identical values can stand only once. Like-named read-outs stand apart in the source and are kept apart here. Non-standard residues stand in square brackets, D forms with d. Residues, ends and D or L forms follow the SMILES beside them. *: point of attachment. pY = N[C@@H](Cc1ccc(OP(=O)(O)O)cc1)C(=O)O; Caffeoyl = O=C(/C=C/c1ccc(O)c(O)c1)*

Columns and labels:
Assay in all cases: biochemical
Format in all cases: binding
[1] = target: T1, FES (Homo sapiens, UniProt P07332); settings: for remaining activity at 10 µM: read-out: percent of DMSO vehicle control
T1 construct: the DNA-tagged SH2 domain concentrations used in this study were <0.1 nM; made in house; host or cells: HEK293 (transient transfection; unpurified extract)
T1 sequence (P07332 460-549 limits assumed): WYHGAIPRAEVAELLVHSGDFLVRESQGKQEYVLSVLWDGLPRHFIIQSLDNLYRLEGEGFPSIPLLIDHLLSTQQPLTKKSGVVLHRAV

[2] = target: T2, GRB7 (Homo sapiens, UniProt Q14451); settings: for remaining activity at 10 µM / percent of DMSO vehicle control at 10 µM: read-out: percent of DMSO vehicle control
T2 construct: the DNA-tagged SH2 domain concentrations used in this study were <0.1 nM; made in house; host or cells: HEK293 (transient transfection; unpurified extract)
T2 sequence (Q14451 431-527 limits assumed): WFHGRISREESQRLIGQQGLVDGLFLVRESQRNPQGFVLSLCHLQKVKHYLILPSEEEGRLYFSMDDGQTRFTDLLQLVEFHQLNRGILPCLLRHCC

[3] = target: T3, LCK (Homo sapiens, UniProt P06239); settings: for remaining activity at 10 µM / percent of DMSO vehicle control at 10 µM: read-out: percent of DMSO vehicle control
T3 construct: the DNA-tagged SH2 domain concentrations used in this study were <0.1 nM; made in house; host or cells: HEK293 (transient transfection, unpurified extract)
T3 sequence (P06239 127-224 limits assumed): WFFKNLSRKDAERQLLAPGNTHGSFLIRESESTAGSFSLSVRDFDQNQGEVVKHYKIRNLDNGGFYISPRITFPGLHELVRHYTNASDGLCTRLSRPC

[4] = target: T4, STAT1 (Homo sapiens, UniProt P42224); settings: for remaining activity at 10 µM: read-out: percent of DMSO vehicle control
T4 construct: made in house; host or cells: HEK293 (transient transfection), unpurified extract
T4 sequence (P42224 1-750): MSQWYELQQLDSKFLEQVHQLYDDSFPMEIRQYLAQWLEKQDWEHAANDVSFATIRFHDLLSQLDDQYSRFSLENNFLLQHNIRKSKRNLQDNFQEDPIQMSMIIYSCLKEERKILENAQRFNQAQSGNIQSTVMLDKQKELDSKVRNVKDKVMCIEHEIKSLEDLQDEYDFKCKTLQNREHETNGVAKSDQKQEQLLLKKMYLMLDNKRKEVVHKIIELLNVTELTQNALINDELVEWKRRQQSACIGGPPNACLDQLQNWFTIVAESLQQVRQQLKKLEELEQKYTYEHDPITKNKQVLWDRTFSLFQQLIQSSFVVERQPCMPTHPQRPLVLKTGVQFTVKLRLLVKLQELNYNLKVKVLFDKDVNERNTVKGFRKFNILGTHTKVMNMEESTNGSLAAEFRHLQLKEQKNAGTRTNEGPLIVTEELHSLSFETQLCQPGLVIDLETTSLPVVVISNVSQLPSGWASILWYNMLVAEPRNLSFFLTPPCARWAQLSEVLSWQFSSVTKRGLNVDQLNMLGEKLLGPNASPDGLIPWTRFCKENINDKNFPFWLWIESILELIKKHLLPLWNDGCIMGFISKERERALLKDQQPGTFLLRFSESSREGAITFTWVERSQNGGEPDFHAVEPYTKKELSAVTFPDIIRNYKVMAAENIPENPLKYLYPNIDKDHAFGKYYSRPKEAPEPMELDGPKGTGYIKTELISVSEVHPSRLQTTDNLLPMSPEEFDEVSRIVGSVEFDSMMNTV

[5] = target: T5, STAT2 (Homo sapiens, UniProt P52630); settings: for remaining activity at 10 µM / percent of DMSO vehicle control at 10 µM: read-out: percent of DMSO vehicle control
T5 construct: made in house; host or cells: HEK293 (transient transfection), unpurified extract
T5 sequence (P52630 whole entry): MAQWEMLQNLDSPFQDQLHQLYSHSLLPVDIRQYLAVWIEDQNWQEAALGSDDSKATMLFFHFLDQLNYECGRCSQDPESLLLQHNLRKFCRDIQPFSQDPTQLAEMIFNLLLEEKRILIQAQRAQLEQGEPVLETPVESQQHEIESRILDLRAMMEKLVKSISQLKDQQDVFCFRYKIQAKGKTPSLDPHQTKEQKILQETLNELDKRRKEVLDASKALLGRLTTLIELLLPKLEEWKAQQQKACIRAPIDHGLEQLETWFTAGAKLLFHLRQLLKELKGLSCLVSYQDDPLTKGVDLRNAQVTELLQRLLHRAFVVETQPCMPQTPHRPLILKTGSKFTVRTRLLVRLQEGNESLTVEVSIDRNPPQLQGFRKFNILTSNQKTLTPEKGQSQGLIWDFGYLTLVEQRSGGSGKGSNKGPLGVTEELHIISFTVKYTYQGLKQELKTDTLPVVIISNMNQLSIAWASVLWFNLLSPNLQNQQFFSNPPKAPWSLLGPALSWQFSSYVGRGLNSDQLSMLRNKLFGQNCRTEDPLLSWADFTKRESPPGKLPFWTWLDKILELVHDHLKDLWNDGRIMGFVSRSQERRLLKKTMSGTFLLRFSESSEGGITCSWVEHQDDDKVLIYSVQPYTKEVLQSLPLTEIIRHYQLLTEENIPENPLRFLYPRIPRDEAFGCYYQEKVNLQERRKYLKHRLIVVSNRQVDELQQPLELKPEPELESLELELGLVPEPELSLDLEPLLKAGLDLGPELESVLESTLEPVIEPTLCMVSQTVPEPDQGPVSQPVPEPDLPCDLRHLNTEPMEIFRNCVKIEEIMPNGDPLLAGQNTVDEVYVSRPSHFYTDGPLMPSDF

[6] = target: T6, STAT6 (Homo sapiens, UniProt P42226); settings: for remaining activity at 10 µM / percent of DMSO vehicle control at 10 µM: read-out: percent of DMSO vehicle control
T6 construct: made in house; host or cells: HEK293 (transient transfection), unpurified extract
T6 sequence (P42226 1-847): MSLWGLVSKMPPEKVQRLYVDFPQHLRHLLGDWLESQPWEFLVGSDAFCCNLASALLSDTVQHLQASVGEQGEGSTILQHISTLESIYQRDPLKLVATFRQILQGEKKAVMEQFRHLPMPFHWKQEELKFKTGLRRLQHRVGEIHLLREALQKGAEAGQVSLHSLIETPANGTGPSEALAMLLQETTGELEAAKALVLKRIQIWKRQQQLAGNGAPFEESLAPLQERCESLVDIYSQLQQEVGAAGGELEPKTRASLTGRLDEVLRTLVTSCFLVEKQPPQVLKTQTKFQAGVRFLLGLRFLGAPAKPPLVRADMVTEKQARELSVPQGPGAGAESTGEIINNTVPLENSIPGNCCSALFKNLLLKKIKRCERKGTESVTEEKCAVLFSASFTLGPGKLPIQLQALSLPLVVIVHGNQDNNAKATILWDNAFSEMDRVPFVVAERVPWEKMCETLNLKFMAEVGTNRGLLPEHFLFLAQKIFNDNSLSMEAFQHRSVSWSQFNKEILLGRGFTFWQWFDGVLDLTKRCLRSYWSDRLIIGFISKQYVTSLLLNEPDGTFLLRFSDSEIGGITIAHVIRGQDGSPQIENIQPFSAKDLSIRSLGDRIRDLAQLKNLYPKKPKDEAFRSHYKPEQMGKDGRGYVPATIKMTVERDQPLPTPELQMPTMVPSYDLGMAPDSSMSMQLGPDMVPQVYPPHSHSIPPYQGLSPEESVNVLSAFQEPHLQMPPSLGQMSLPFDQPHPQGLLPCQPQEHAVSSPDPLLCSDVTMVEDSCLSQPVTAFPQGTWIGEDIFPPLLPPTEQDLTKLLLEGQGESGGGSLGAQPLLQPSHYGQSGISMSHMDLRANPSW

[7] = target: T7, TEC (Homo sapiens, UniProt P42680); settings: for remaining activity at 10 µM / percent of DMSO vehicle control at 10 µM: read-out: percent of DMSO vehicle control
T7 construct: made in house; host or cells: HEK293 (transient transfection), unpurified extract
T7 sequence (P42680 1-631): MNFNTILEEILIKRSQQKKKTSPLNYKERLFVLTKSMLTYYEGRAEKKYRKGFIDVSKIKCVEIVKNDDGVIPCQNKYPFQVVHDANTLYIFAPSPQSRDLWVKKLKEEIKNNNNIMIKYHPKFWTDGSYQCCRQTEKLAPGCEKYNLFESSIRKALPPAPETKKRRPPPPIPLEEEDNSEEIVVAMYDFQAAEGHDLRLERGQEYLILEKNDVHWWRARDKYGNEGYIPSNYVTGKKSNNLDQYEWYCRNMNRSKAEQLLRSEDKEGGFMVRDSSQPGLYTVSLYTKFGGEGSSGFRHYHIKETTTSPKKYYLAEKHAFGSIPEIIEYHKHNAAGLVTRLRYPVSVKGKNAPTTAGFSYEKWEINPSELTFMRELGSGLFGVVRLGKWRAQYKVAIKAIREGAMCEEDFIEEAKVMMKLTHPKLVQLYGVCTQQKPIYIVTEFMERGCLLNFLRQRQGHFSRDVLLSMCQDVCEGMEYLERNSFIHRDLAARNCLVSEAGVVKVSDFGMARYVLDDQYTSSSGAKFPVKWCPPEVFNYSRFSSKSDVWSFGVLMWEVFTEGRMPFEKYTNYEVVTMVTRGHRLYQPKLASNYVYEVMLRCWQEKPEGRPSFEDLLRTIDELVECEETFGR

Row | Structure (SMILES) | remaining activity at 10 µM ([1]; primary screen, 10 μM) [%] | remaining activity at 10 µM ([2]; primary screen, 10 μM) [%] | remaining activity at 10 µM ([3]; primary screen, 10 μM) [%] | remaining activity at 10 µM ([4]; primary screen, 10 μM) [%] | remaining activity at 10 µM ([5]; primary screen, 10 μM) [%] | remaining activity at 10 µM ([6]; primary screen, 10 μM) [%] | remaining activity at 10 µM ([7]; primary screen, 10 μM) [%] | remaining activity at 10 µM [1] [%] | percent of DMSO vehicle control at 10 µM [2] [%] | percent of DMSO vehicle control at 10 µM [3] [%] | remaining activity at 10 µM [4] [%] | percent of DMSO vehicle control at 10 µM [5] [%] | percent of DMSO vehicle control at 10 µM [6] [%] | percent of DMSO vehicle control at 10 µM [7] [%] | Kd ([4]; dose-response, read-out: KD) [µM] | Kd ([6]; dose-response, read-out: KD) [µM] | also measured
1 | O=C(CCl)Nc1cccc(CNC(=O)[C@H](Cc2ccc(OP(=O)(O)O)cc2)NC(=O)Cc2ccc(F)cc2)c1 [MN551] | 82.1 ± 4.3 | 71.3 ± 3.5 | 98.7 ± 0.5 | 49.8 ± 4.1 | 217 | 37.2 | 120 |  |  |  |  |  |  |  |  |  | 
2 | CC[C@H](C)[C@H](NC(=O)[C@H](CCC(=O)O)NC(=O)[C@H](CCC(=O)O)NC(=O)[C@H](Cc1ccc(OP(=O)(O)O)cc1)NC(C)=O)C(=O)N[C@@H](CCC(=O)O)C(N)=O [Ac-pYEEIE-NH2] (Ac-[pY]EEIE-NH2) |  |  |  |  |  |  |  |  |  |  |  |  |  |  |  |  | Kd [1]: 4.2 µM; percent of DMSO vehicle control ([1]; primary screen, 10 μM): 24.1±2.4%; percent of DMSO vehicle control ([2]; primary screen, 10 μM): 123.8%; percent of DMSO vehicle control ([3]; primary screen, 10 μM): 44.2±3.3%; percent of DMSO vehicle control ([4]; primary screen, 10 μM): 69.3%; percent of DMSO vehicle control ([5]; primary screen, 10 μM): 53.6±1.3%; percent of DMSO vehicle control ([6]; primary screen, 10 μM): 162.5%; percent of DMSO vehicle control ([7]; primary screen, 10 μM): 119.3%
3 | CC(=O)N1CC[C@H]2CC[C@@H](C(=O)N[C@@H](CCC(N)=O)C(=O)NC(c3ccccc3)c3ccccc3)N2C(=O)[C@@H](NC(=O)c2cc3cc(C(F)(F)P(=O)(O)O)ccc3[nH]2)C1 [SI-109] |  |  |  |  |  |  |  | 160 | 135 | 127 | 0 | 100 | 44.5 ± 2.9 | 135 |  |  | Kd [4]: 0.18 ± 0.035 µM; Kd [5]: 1.3 ± 1.3 µM; Kd [6]: 1.4 ± 0.00015 µM
4 | CC(=O)N[C@@H](Cc1ccc(CP(=O)(O)O)cc1)C(=O)NC1(C(=O)N[C@@H](CC(N)=O)C(=O)NCCCc2c(O)ccc3ccccc23)CCCCC1 [CGP78850] |  |  |  |  |  |  |  | 52 ± 0.5 | 0 | 46 ± 3.7 | 71.2 ± 2.1 | 27.3 | 104 ± 11 | 126.5 ± 0.2 |  |  | Kd [2]: 0.0052 µM; KD ([5]; dose-response): No Hit
5 | CC[C@H](C)[C@H](NC(=O)[C@H](CCC(=O)O)NC(=O)[C@H](CCC(=O)O)NC(=O)[C@H](Cc1ccc(OP(=O)(O)O)cc1)NC(=O)/C=C/c1ccc(O)c(O)c1)C(=O)N[C@@H](CCC(=O)O)C(=O)O [Caffeic acid-pYEEIE] (Caffeoyl-[pY]EEIE-OH) |  |  |  |  |  |  |  | 2.2 ± 0.4 | 0.2 ± 0.1 | 0 | 27.1 ± 21.3 | 0 | 103 ± 16.9 | 0.1 |  |  | Kd [1]: 0.024 ± 0.0049 µM; Kd [2]: 6.1 ± 0.32 µM; Kd [3]: 0.0037 ± 0.00062 µM; KD ([4]; dose-response): No Hit; Kd [5]: 0.0036 ± 0.00018 µM; Kd [7]: 0.039 ± 0.0078 µM
6 | NC(=O)CC[C@H](NC(=O)[C@@H]1CC[C@@H]2CCN(C(=O)CCCCCC#Cc3cccc4c3CN(C3CCC(=O)NC3=O)C4=O)C[C@H](NC(=O)c3cc4cc(C(F)(F)P(=O)(O)O)ccc4[nH]3)C(=O)N21)C(=O)NC(c1ccccc1)c1ccccc1 (some centres unmarked) [SD-36] |  |  |  |  |  |  |  | 46.3 ± 7.5 | 66.9 ± 4.6 | 97.3 ± 3.9 | 9.1 | 0.1 ± 1.3 | 4.2 ± 0.1 | 121 ± 3 |  |  | Kd ([4]; dose-response): 0.18 ± 0.061 µM; Kd ([5]; dose-response): 0.45 µM and 0.454 µM; Kd ([6]; dose-response): 1.07 ± 0.74 µM
7 | CC(C)(C)[C@H](NC(=O)/C=C/c1ccc(OP(=O)(O)O)cc1)C(=O)N1CCC[C@H]1C(=O)N(c1ccccc1)c1ccc(I)cc1 [STAT6-IN-3] | 82 ± 13.1 | 81.2 ± 4.6 | 72 ± 20.4 | 0.7 ± 0.6 | 60.3 ± 12.5 | 0 | 136 ± 22.9 |  |  |  |  |  |  |  | 0.67 ± 0.33 | 0.0086 | Kd ([5]; dose-response, read-out: KD): 0.51 ± 0.083 µM
8 | C/C(=C\C(=O)N[C@H](C(=O)N1CCC[C@H]1C(=O)N(c1ccccc1)c1ccc(I)cc1)C(C)(C)C)c1ccc(OP(=O)(O)O)cc1 [STAT6-IN-1] | 66.3 ± 6.4 | 47.7 ± 4.2 | 48.3 ± 1.3 | 0 | 35.1 ± 16.6 | 0 | 75.1 ± 3.7 |  |  |  |  |  |  |  | 0.33 ± 0.073 | 0.00068 | 
9 | O=C(COc1ccc2cc(C(=O)Nc3ccccc3)ccc2c1)NCc1ccc(OP(=O)(O)O)c(OP(=O)(O)O)c1 [Stafib-1] | 116 | 57.9 ± 22.2 | 97.4 ± 7.6 | 48.2 ± 5.4 | 153 | 18.2 | 159 |  |  |  |  |  |  |  | 37 | 7.3 ± 2.3 | Kd ([5]; dose-response, read-out: KD): 9.3 ± 4.3 µM
